Data from US20140179681A1, “METHODS AND COMPOSITIONS OF TARGETED DRUG DEVELOPMENT” (priority 2010, published 2014).
pIC50: −log10 of the molar value. Structures can show the parent of a compound that is named as a salt. Where two headings read alike, the source gives them in different places.

Key:
[1] = system: MDBK line; experiment: MTT Cell Proliferation Assay, MDBK cells; assay type: cell-based, bovine; settings: for IC50: unit not printed (doses in μM), read-out: MTT Screen (second value)
In short: (§1)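 Viability was measured by mitochondrial MTT reduction after cells were exposed to compound for 3 days in reduced-serum medium. Inhibition was calculated per plate against 0.5% DMSO controls.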

[2] = molecular target: T1, EGFR (Homo sapiens, UniProt P00533); experiment: EGFR in-cell Western (ICW) screening protocol (EGFR inhibition assay); assay type: cell-based; set-up: ICW 1 / ICW 2 / ICW Avg: unit not given here; settings: for ICW Avg / ICW 1 / ICW 2: ICW assay; for ICW Avg: average of runs 1 and 2; for ICW 1: run 1; for ICW 2: run 2; for ICW Screen: Table 11, % Inhibition of EGF dependent EGFR phosphorylation in A431 cells, compound 125 μM in assay
T1 construct: host or cells: A431
In short: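 Serum-starved A431 cells (2 h) were pretreated with compound for 4 h at 37° C, then stimulated with EGF (10 ng/ml final, or 6.6 or 12.5 ng/ml in some runs) for 10 min. After formaldehyde fixation, phospho-EGFR (Tyr1173, or Tyr1045 in some runs) and total EGFR were detected by in-cell Western immunostaining.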

[3] = system: epithelial carcinoma A431 cell line; experiment: MTT Cell Proliferation Assay, A431 cells; assay type: cell-based; settings: for MTT Assay IC50(A431/MDBK): ratio in parentheses: ratio MDBK IC50 / A431 IC50 (selectivity); for IC50: unit not printed (doses in μM), read-out: MTT Screen (first value)
In short: as §1

[4] = Bos taurus, MDBK, MDBK cells, second value of cell, read-out: MTT Assay IC50(A431/MDBK): MDBK
[5] = A431 cells, first value of cell, read-out: MTT Assay IC50(A431/MDBK): A431
[6] = Homo sapiens, A-431, A431 cells, first value of cell, read-out: MTT Assay IC50(A431/MDBK): A431
[7] = MDBK cells, second value of cell, read-out: MTT Assay IC50(A431/MDBK): MDBK
[8] = Bos taurus, MDBK, Table 11, second of x/y(ratio): MDBK
[9] = Homo sapiens, A-431, Table 11, first of x/y(ratio): A431
[10] = Homo sapiens, A-431, Table 11, first of x/y(ratio): A431, unit inferred, read-out: MTT Follow-up (first value)
[11] = Homo sapiens, A-431, 72 h, Table 11, first of x/y(ratio): A431

T1 sequence (P00533 25-1210): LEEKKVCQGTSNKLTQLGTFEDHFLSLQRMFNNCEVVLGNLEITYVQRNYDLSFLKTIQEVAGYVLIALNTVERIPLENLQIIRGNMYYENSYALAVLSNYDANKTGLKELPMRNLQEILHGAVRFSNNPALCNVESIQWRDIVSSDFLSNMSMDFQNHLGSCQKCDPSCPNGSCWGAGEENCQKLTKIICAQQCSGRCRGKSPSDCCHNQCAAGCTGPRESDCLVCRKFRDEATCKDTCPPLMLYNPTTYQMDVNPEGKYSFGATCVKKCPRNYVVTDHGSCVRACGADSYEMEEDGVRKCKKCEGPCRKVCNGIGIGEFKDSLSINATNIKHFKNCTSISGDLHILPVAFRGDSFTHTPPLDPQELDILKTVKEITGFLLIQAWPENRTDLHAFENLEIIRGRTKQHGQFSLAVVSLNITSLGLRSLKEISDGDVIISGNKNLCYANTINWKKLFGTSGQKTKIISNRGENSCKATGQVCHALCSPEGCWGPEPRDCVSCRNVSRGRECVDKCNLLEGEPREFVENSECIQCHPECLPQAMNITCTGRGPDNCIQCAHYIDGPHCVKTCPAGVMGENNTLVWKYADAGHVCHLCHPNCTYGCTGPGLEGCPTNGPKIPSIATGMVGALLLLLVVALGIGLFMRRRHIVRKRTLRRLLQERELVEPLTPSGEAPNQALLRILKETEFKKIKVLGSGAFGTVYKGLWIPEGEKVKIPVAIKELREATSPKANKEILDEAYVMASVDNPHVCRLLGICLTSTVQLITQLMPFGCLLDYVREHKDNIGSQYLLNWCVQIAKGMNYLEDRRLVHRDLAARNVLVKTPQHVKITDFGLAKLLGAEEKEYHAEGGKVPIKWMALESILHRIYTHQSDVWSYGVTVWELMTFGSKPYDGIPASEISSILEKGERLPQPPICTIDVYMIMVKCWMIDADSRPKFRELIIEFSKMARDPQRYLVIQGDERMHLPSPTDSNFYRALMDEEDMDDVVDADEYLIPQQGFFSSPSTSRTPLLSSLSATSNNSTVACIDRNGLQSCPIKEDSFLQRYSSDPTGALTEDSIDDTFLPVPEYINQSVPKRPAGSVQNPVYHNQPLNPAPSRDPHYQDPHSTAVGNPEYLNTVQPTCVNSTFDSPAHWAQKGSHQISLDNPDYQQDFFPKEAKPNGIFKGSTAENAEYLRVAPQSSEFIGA

Structure (SMILES)	pIC50 [1, 4]	ICW Avg [2]	ICW 1 [2]	ICW 2 [2]	MTT Assay IC50(A431/MDBK): ratio in parentheses [3]	pIC50 [3, 6]	also measured
CCCc1cc(=O)[nH]c(Nc2nc(C)c3cc(C)c(C)cc3n2)n1 [12654 + TFA]	4.90	36.07	37.92	34.22	0.79	–	pIC50 [3, 5]: 4.80
CCCc1c[nH]c(Nc2nc(-c3ccccc3)c3cc(Cl)ccc3n2)nc1=O [12660 + TFA]	4.39	61.63	49.87	73.40	0.99	4.38	–
CCc1c(C)nc(Nc2nc(C)c3ccc(C)cc3n2)[nH]c1=O [12665 + TFA]	–	44.17	51.06	37.29	0.98	–	pIC50 [1, 7]: 4.77; pIC50 [3, 5]: 4.76
Cc1ccc2nc(Nc3nc(C)c(CCC(C)C)c(=O)[nH]3)nc(C)c2c1 [12666 + TFA]	4.77	36.77	48.16	25.37	1.18	4.84	–
CCCc1cc(=O)[nH]c(Nc2nc(C)c3ccc(OC)cc3n2)n1 [12669 + TFA]	4.44	25.42	11.73	39.10	0.74	4.31	–
CCCc1cc(=O)[nH]c(Nc2nc(C)c3cc(C)c(C)cc3n2)n1 [12673 + TFA]	–	52.80	44.70	60.90	0.68	–	pIC50 [1, 7]: 4.65; pIC50 [3, 5]: 4.48
CCc1c(C)nc(Nc2nc(C)c3ccc(C)cc3n2)[nH]c1=O [12683 + TFA]	–	40.88	54.37	27.38	0.71	–	pIC50 [1, 7]: 4.34; pIC50 [3, 5]: 4.20
CCOc1ccc2nc(Nc3nc(C)c(CCC(C)C)c(=O)[nH]3)nc(C)c2c1 [12684 + TFA]	4.71	28.28	40.81	15.75	0.76	4.59	–
CCOc1ccc2nc(Nc3nc(C)cc(-c4ccccc4)n3)nc(C)c2c1 [12688 + TFA]	5.45	36.40	45.86	26.95	0.71	5.30	–
Cc1ccc2nc(Nc3nc(C)cc(-c4ccccc4)n3)nc(C)c2c1 [12689 + TFA]	4.36	30.58	44.07	17.08	0.99	4.36	–
Cc1ccc2c(O)nc(Nc3nc(C)cc(-c4ccccc4)n3)nc2c1 [12693 + TFA]	5.16	57.18	40.36	74.00	0.76	5.05	–
COc1cccc2c(C)nc(Nc3nc(C)c(C)c(=O)[nH]3)nc12 [12723 + TFA]	–	66.62	67.34	65.91	1.07	–	pIC50 [1, 7]: 5.00; pIC50 [3, 5]: 5.03
CCOc1cccc2c(C)nc(Nc3nc(C)c(C)c(=O)[nH]3)nc12 [12735 + TFA]	4.81	64.72	69.46	59.98	0.85	4.75	–
CCc1c(C)nc(Nc2nc(C)c3cccc(OC)c3n2)[nH]c1=O [12738 + TFA]	–	45.35	53.67	37.02	0.54	–	pIC50 [1, 7]: 4.61; pIC50 [3, 5]: 4.34
Cc1nc(Nc2nc(CSc3ccccn3)cc(=O)[nH]2)nc2ccccc12 [12740 + TFA]	–	28.34	28.77	27.91	0.48	–	pIC50 [1, 7]: 4.63; pIC50 [3, 5]: 4.31
Cc1ccc2nc(Nc3nc(C(C)C)cc(=O)[nH]3)nc(C)c2c1 [12741 + TFA]	4.55	33.57	42.10	25.04	0.44	4.20	–
CCCCc1c(C)nc(Nc2nc(C)c3ccccc3n2)[nH]c1=O [12743 + TFA]	–	25.65	9.17	42.12	1.43	–	pIC50 [1, 7]: 5.01; pIC50 [3, 5]: 5.16
CCCCc1c(C)nc(Nc2nc(C)c3ccc(C)cc3n2)[nH]c1=O [12776 + TFA]	4.72	25.32	21.34	29.30	0.64	4.53	–
O=C(NC(=S)Nc1ccc(S(=O)(=O)NCCc2ccccc2)cc1)C1CC1 [AD4-10120]	–	–	–	–	–	–	pIC50 ([1]; Bos taurus, MDBK, second value of 'a/b (c)', taken as MDBK cells, read-out: MTT Screen, second value of cell): 4.41; ICW Screen (ICW Inhibition) [2]: 39.873; pIC50 ([3]; Homo sapiens, A-431, first value of 'a/b (c)', taken as A431 cells, read-out: MTT Screen, first value of cell): 4.64
CCc1cc2c(CN3CCN(c4ccc(OC)cc4)CC3)cc(=O)oc2cc1O [AD4-10171]	–	–	–	–	–	–	IC50 [1, 8]: 21 µM; ICW Screen [2]: 39.389; IC50 [3, 9]: 16.5 µM
Cc1cc(C)c2oc(=O)cc(CN3CCN(Cc4ccc5c(c4)OCO5)CC3)c2c1 [AD4-10174]	–	–	–	–	–	–	pIC50 ([1]; Bos taurus, MDBK, Table 11, second of x/y(ratio): MDBK, unit inferred, read-out: MTT Follow-up (second value)): 3.99; IC50 [1, 8]: 8.58 µM; ICW Screen [2]: 45.85; pIC50 [3, 10]: 5.35; IC50 [3, 9]: 2.26 µM
O=c1cc(CN2CCN(Cc3ccc4c(c3)OCO4)CC2)c2cc3c(cc2o1)CCC3 [AD4-10179]	–	–	–	–	–	–	IC50 [1, 8]: 13.9 µM; ICW Screen [2]: 34.742; IC50 [3, 11]: 13.2 µM
O=c1cc(CN2CCN(Cc3ccccc3)CC2)c2cc(Cl)c(O)cc2o1 [AD4-10180]	–	–	–	–	–	–	IC50 [1, 8]: 36.3 µM; ICW Screen [2]: 32.1; IC50 [3, 11]: 16.7 µM
Cc1ccc2c(CN3CCN(Cc4ccc5c(c4)OCO5)CC3)cc(=O)oc2c1C [AD4-10181]	–	–	–	–	–	–	IC50 [1, 8]: 16 µM; ICW Screen [2]: 34.604; IC50 [3, 11]: 2.61 µM
Cc1cc(C)c2c(CN3CCN(Cc4ccc5c(c4)OCO5)CC3)cc(=O)oc2c1 [AD4-10182]	–	–	–	–	–	–	IC50 [1, 8]: 43.3 µM; MTT Follow-up (second value) ([1]; Table 11, second of x/y(ratio): MDBK, unit not given): non- convergent; ICW Screen [2]: 39.51; IC50 [3, 11]: 6.78 µM; pIC50 [3, 10]: 5.43
CCc1cc2c(CN3CCN(Cc4ccccc4)CC3)cc(=O)oc2cc1O [AD4-10186]	–	–	–	–	–	–	IC50 [1, 8]: 45.7 µM; ICW Screen [2]: 47.518; IC50 [3, 9]: 40.1 µM
CC(C)c1ccc2oc(=O)cc(CN3CCN(C/C=C/c4ccccc4)CC3)c2c1 [AD4-10188]	–	–	–	–	–	–	IC50 [1, 8]: 16.3 µM; ICW Screen [2]: 53.35; IC50 [3, 9]: 9.05 µM
